Test results from PubChem BioAssay AID226 (DTP/NCI, 2004).
Values joined by “and” are separate entries in the source; they are usually repeats but may differ in a detail not shown here. Identical values can stand only once. Inconclusive results and toxic doses are left out.

System: B6C3F1 mice, intracerebral ependymoblastoma, median survival T/C
Experiment: NCI In Vivo Anticancer Drug Screen. Data for tumor model Ependymoblastoma (intracerebral) in B6C3F1 mice
Details: endpoint: median survival time, higher = longer survival
Experimental: The antitumor activity of compounds was measured in mice bearing transplantable tumors. Survival or tumor size were measured and the results are expressed as the measurement made in the treated group (T) divided by the measurement made in the vehicle treated control group (C). The tumor model used in this assay is Ependymoblastoma (intracerebral) in B6C3F1 mice

[1] = dose: 25.0 mg/kg/injection, schedule: Q01DX005 (ip), vehicle: saline
[2] = dose: 50.0 mg/kg/injection, schedule: Q01DX005 (ip), vehicle: saline
[3] = dose: 100.0 mg/kg/injection, schedule: Q01DX005 (ip), vehicle: saline
[4] = dose: 200.0 mg/kg/injection, schedule: Q01DX005 (ip), vehicle: saline
[5] = dose: 400.0 mg/kg/injection, schedule: Q01DX005 (ip), vehicle: saline
[6] = dose: 32.0 mg/kg/injection, schedule: Q01DX005 (ip), vehicle: saline with Tween-80
[7] = dose: 128.0 mg/kg/injection, schedule: Q01DX005 (ip), vehicle: saline with Tween-80
[8] = dose: 256.0 mg/kg/injection, schedule: Q01DX005 (ip), vehicle: saline with Tween-80
[9] = dose: 32.0 mg/kg/injection, schedule: Q01DX005 (ip), vehicle: saline
[10] = dose: 128.0 mg/kg/injection, schedule: Q01DX005 (ip), vehicle: saline

## OC(C1CO1)C(O)C1CO1 (configuration not stated)
dose: 0.25 mg/kg/injection, schedule: Q01DX005 (ip), vehicle: saline
  T/C: 112 % of control
dose: 0.5 mg/kg/injection, schedule: Q01DX005 (ip), vehicle: water
  T/C: 115 % of control
dose: 1.0 mg/kg/injection, schedule: Q01DX001 (ip), vehicle: saline
  T/C: 94 % of control and 121 % of control
dose: 1.0 mg/kg/injection, schedule: Q01DX005 (ip), vehicle: water
  T/C: 112 % of control
dose: 1.0 mg/kg/injection, schedule: Q#A X002 (ip), vehicle: water
  T/C: 105 % of control
dose: 2.0 mg/kg/injection, schedule: Q01DX001 (ip), vehicle: saline
  T/C: 113 % of control
dose: 2.0 mg/kg/injection, schedule: Q01DX001 (ip), vehicle: water
  T/C: 105 % of control and 110 % of control and 118 % of control
dose: 2.0 mg/kg/injection, schedule: Q01DX005 (ip), vehicle: water
  T/C: 124 % of control
dose: 2.0 mg/kg/injection, schedule: Q#A X002 (ip), vehicle: water
  T/C: 112 % of control
dose: 4.0 mg/kg/injection, schedule: Q01DX001 (ip), vehicle: saline
  T/C: 113 % of control
dose: 4.0 mg/kg/injection, schedule: Q01DX001 (ip), vehicle: water
  T/C: 116 % of control and 117 % of control
dose: 4.0 mg/kg/injection, schedule: Q01DX005 (ip), vehicle: water
  T/C: 181 % of control
dose: 8.0 mg/kg/injection, schedule: Q01DX001 (ip), vehicle: saline
  T/C: 113 % of control
dose: 8.0 mg/kg/injection, schedule: Q01DX001 (ip), vehicle: water
  T/C: 151 % of control
dose: 8.0 mg/kg/injection, schedule: Q#A X002 (ip), vehicle: water
  T/C: 175 % of control
dose: 16.0 mg/kg/injection, schedule: Q01DX001 (ip), vehicle: saline
  T/C: 150 % of control and 166 % of control
dose: 16.0 mg/kg/injection, schedule: Q01DX001 (ip), vehicle: water
  T/C: 175 % of control

## Cn1cnc([N+](=O)[O-])c1Sc1nc(N)nc2c1ncn2C1OC(CO)C(O)C1O (configuration not stated)
dose: 6.25 mg/kg/injection, schedule: Q01DX005 (ip), vehicle: suspension in saline
  T/C: 109 % of control
dose: 12.5 mg/kg/injection, schedule: Q01DX005 (ip), vehicle: suspension in saline
  T/C: 115 % of control
dose: 25.0 mg/kg/injection, schedule: Q01DX005 (ip), vehicle: suspension in saline
  T/C: 107 % of control

## C1CN(P2(N3CC3)=NP(N3CC3)(N3CC3)=NP(N3CC3)(N3CC3)=N2)CCO1 (configuration not stated)
dose: 20.0 mg/kg/injection, schedule: Q01DX001 (ip), vehicle: saline
  T/C: 101 % of control
dose: 40.0 mg/kg/injection, schedule: Q01DX001 (ip), vehicle: saline
  T/C: 102 % of control
dose: 80.0 mg/kg/injection, schedule: Q01DX001 (ip), vehicle: saline
  T/C: 96 % of control

## COc1ccc2c(c1OC(C)=O)-c1cc(OC(C)=O)cc3c1C(C2)N(C(=O)CN(CCCl)CCCl)CC3 (configuration not stated)
dose: 12.5 mg/kg/injection, schedule: Q01DX005 (ip), vehicle: DMSO
  T/C: 108 % of control

## COc1c(C)c2c(c(O)c1C/C=C(\C)CCC(=O)O)C(=O)OC2
dose: 12.5 mg/kg/injection, schedule: Q01DX005 (ip), vehicle: saline
  T/C: 101 % of control
[1]
  T/C: 105 % of control
[2]
  T/C: 100 % of control
[3]
  T/C: 98 % of control
[4]
  T/C: 102 % of control
[5]
  T/C: 98 % of control

## Nc1ncnc2c1ncn2C1OC(COP(=O)(O)O)C(O)C1O (configuration not stated)
[1]
  T/C: 100 % of control
[2]
  T/C: 106 % of control and 107 % of control
[3]
  T/C: 105 % of control and 112 % of control
[4]
  T/C: 107 % of control and 109 % of control
[5]
  T/C: 106 % of control and 112 % of control
dose: 800.0 mg/kg/injection, schedule: Q01DX005 (ip), vehicle: saline
  T/C: 117 % of control

## O=C(N/N=C\c1cc(Br)cc(Br)c1O)N/N=C/c1cc(Br)cc(Br)c1O
[6]
  T/C: 109 % of control
dose: 64.0 mg/kg/injection, schedule: Q01DX005 (ip), vehicle: saline with Tween-80
  T/C: 106 % of control
[7]
  T/C: 105 % of control
[8]
  T/C: 106 % of control
dose: 512.0 mg/kg/injection, schedule: Q01DX005 (ip), vehicle: saline with Tween-80
  T/C: 99 % of control

## NC(=O)c1cn(C2OC(CO)C(O)C2O)c2ncnc(N)c12 (configuration not stated)
dose: 0.38 mg/kg/injection, schedule: Q01DX005 (ip), vehicle: Klucel (hydroxypropylcellulose) (HPC)
  T/C: 92 % of control
dose: 0.75 mg/kg/injection, schedule: Q01DX005 (ip), vehicle: Klucel (hydroxypropylcellulose) (HPC)
  T/C: 90 % of control
dose: 1.5 mg/kg/injection, schedule: Q01DX005 (ip), vehicle: Klucel (hydroxypropylcellulose) (HPC)
  T/C: 103 % of control
dose: 3.0 mg/kg/injection, schedule: Q01DX005 (ip), vehicle: Klucel (hydroxypropylcellulose) (HPC)
  T/C: 94 % of control

## O=C(NP(=O)(N1CC1)N1CC1)c1cc(I)ccc1I
dose: 8.0 mg/kg/injection, schedule: Q01DX005 (ip), vehicle: saline
  T/C: 104 % of control and 109 % of control
dose: 16.0 mg/kg/injection, schedule: Q01DX005 (ip), vehicle: saline
  T/C: 106 % of control and 124 % of control
dose: 16.0 mg/kg/injection, schedule: Q#A X004 (ip), vehicle: suspension in saline
  T/C: 101 % of control
dose: 16.0 mg/kg/injection, schedule: Q#A X006 (ip), vehicle: suspension in saline
  T/C: 113 % of control
dose: 32.0 mg/kg/injection, schedule: Q01DX001 (ip), vehicle: suspension in saline
  T/C: 101 % of control
[9]
  T/C: 112 % of control
dose: 32.0 mg/kg/injection, schedule: Q#A X004 (ip), vehicle: suspension in saline
  T/C: 117 % of control
dose: 32.0 mg/kg/injection, schedule: Q#A X006 (ip), vehicle: suspension in saline
  T/C: 117 % of control
dose: 64.0 mg/kg/injection, schedule: Q01DX001 (ip), vehicle: suspension in saline
  T/C: 117 % of control
dose: 64.0 mg/kg/injection, schedule: Q01DX001 (oral), vehicle: suspension in saline
  T/C: 103 % of control
dose: 64.0 mg/kg/injection, schedule: Q#A X004 (ip), vehicle: suspension in saline
  T/C: 117 % of control
dose: 64.0 mg/kg/injection, schedule: Q#A X006 (ip), vehicle: suspension in saline
  T/C: 122 % of control
dose: 128.0 mg/kg/injection, schedule: Q01DX001 (ip), vehicle: suspension in saline
  T/C: 103 % of control
dose: 128.0 mg/kg/injection, schedule: Q01DX001 (oral), vehicle: suspension in saline
  T/C: 106 % of control
[10]
  T/C: 116 % of control
dose: 128.0 mg/kg/injection, schedule: Q#A X004 (ip), vehicle: suspension in saline
  T/C: 111 % of control
dose: 256.0 mg/kg/injection, schedule: Q01DX001 (oral), vehicle: suspension in saline
  T/C: 113 % of control
dose: 512.0 mg/kg/injection, schedule: Q01DX001 (ip), vehicle: suspension in saline
  T/C: 112 % of control

## COC(=O)c1ccc(N=NN(C)C)cc1
dose: 8.0 mg/kg/injection, schedule: Q01DX005 (ip), vehicle: saline + alcohol
  T/C: 114 % of control
dose: 16.0 mg/kg/injection, schedule: Q01DX005 (ip), vehicle: saline + alcohol
  T/C: 114 % of control
dose: 128.0 mg/kg/injection, schedule: Q01DX005 (ip), vehicle: saline + alcohol
  T/C: 160 % of control and 164 % of control
dose: 256.0 mg/kg/injection, schedule: Q01DX005 (ip), vehicle: saline + alcohol
  T/C: 100 % of control

## O=NN(CCCl)C(=O)NC1CCN(Cc2ccccc2)CC1
dose: 12.5 mg/kg/injection, schedule: Q01DX001 (ip), vehicle: water
  T/C: 124 % of control
dose: 50.0 mg/kg/injection, schedule: Q01DX001 (ip), vehicle: water
  T/C: 160 % of control
dose: 100.0 mg/kg/injection, schedule: Q01DX001 (ip), vehicle: water
  T/C: 242 % of control

## CN1CCC23c4c5ccc(O)c4OC2C(O)C=CC3C1C5 (configuration not stated)
[9]
  T/C: 112 % of control
dose: 64.0 mg/kg/injection, schedule: Q01DX005 (ip), vehicle: saline
  T/C: 101 % of control
[10]
  T/C: 99 % of control

## COC12C(COC(N)=O)C3=C(C(=O)C(C)=C(N)C3=O)N1CC1C2N1C (configuration not stated)
dose: 2.0 mg/kg/injection, schedule: Q01DX005 (ip), vehicle: Klucel (hydroxypropylcellulose) (HPC)
  T/C: 105 % of control and 110 % of control
dose: 4.0 mg/kg/injection, schedule: Q01DX005 (ip), vehicle: Klucel (hydroxypropylcellulose) (HPC)
  T/C: 112 % of control and 114 % of control

## CCCCN(C)N=Nc1ccc([N+](=O)[O-])cc1C(N)=O
[6]
  T/C: 114 % of control
[7]
  T/C: 171 % of control
[8]
  T/C: 158 % of control

## Cc1cnc(/C=N\NC(N)=S)c2cccc(N)c12
dose: 12.5 mg/kg/injection, schedule: Q01DX005 (ip), vehicle: saline with Tween-80
  T/C: 100 % of control
dose: 25.0 mg/kg/injection, schedule: Q01DX005 (ip), vehicle: saline with Tween-80
  T/C: 103 % of control
dose: 50.0 mg/kg/injection, schedule: Q01DX005 (ip), vehicle: saline with Tween-80
  T/C: 104 % of control
dose: 100.0 mg/kg/injection, schedule: Q01DX005 (ip), vehicle: saline with Tween-80
  T/C: 102 % of control
